Results as given in patent US12679836B2, “4H-pyrrolo[3,2-c]pyridin-4-one compounds” (Bayer Aktiengesellschaft, priority 2019, dated 2026).

What was measured:
Assay type in all cases: cell-based
Ba/F3-EGFR-insSVD cells = Ba/F3-EGFR-insSVD cells (Homo sapiens, UniProt P00533, DUP768-770, cells depend on it); assay: Ba/F3 cell survival assay (Cell Titer-Glo), EGFR-insSVD; details: without IL-3, with 10 ng/mL EGF, 48 h; read-out: BA/F3 (insSVD) IC50
Procedure, shortened: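 Ba/F3 cells stably expressing WT EGFR or EGFR-insSVD from retroviral transduction were grown without IL-3 on 10 ng/mL EGF. Cells were plated at 4000 cells/well, treated with compound for 48 h at 37° C, and viability was read by CellTiter-Glo luminescence.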

[1] = molecular target: Ba/F3-EGFR-E746_A750del cells (Homo sapiens, UniProt P00533, DEL746-750, cells depend on it); assay: Ba/F3 cell survival assay, EGFR E746_A750del; details: without IL-3, without EGF, 48 h; read-out: BA/F3 (EGFR E746_A750del) IC50
Protocol: (§1) 293T cells from ATCC were transfected with pBABEpuro expression constructs for mutant EGFR (V769_D770insASV, D770_N771insNPG, N771_P772insH, H773_V774insNPH, E746_A750del, L858R, D770_N771insSVD C797S, E746_A750del C797S, L858R C797S, L861Q) or mutant ERBB2 (A775_G776insYVMA) and pCL-Eco packaging vector using Fugene-6 transfection reagent from Promega. Plates were incubated at 37° C. for 48 h. Retrovirus was harvested by filtering the media supernatant through a 0.45 μm filter.
(§2) Ba/F3 cells purchased from DSMZ were grown in RPMI+10% FBS+10 ng/mL IL-3 and infected with filtered retroviral supernatant at a 1:2 dilution. Polybrene was added to a concentration of 8 μg/mL, plates were spun for 90 min, and incubated overnight at 37° C. 2 μg/mL puromycin was added to the infected cells 24 h after infection and cells were continually grown in the presence of puromycin and 10 ng/mL IL-3. Following stably expressing Ba/F3 cell lines were generated: Ba/F3-EGFR-V769_D770insASV, Ba/F3-EGFR-D770_N771insNPG, Ba/F3-EGFR-N771_P772insH, Ba/F3-EGFR-H773_V774insNPH, Ba/F3-EGFR-E746_A750del, Ba/F3-EGFR-L858R, Ba/F3-EGFR-D770_N771 insSVD C797S, Ba/F3-EGFR-E746_A750del C797S, Ba/F3-EGFR-L858R C797S, Ba/F3-EGFR L861Q and Ba/F3-ERBB2-A775_G776insYVMA (Ba/F3-vector-control).
(§3) For cell survival assays, Ba/F3 cells were grown to a density of 1-2 million cells per mL, spun down and resuspended in media without IL-3, and replated at a concentration 200,000-500,000 cells per mL. The cells ectopically expressing WT EGFR plated with 10 ng/mL Millipore Culture grade EGF and Ba/F3 cells containing mutant EGFR or Mutant ERBB2 were cultivated without EGF. The cells ectopically expressing pBABEpuro empty vector were plated with 10 ng/mL IL-3.
(§4) 2 days later, cells were plated in 50 μL in a 384 well plate at a concentration of 4000 cells per well for cells assayed in the absence of IL-3 and 2000 cells per well for cells assayed in the presence of IL-3. 100 nL of compound was added to each well using a 100 nL pin head, and plates were incubated at 37° C. for 48 h.
(§5) Cell viability was measured by adding 20 μL of Cell Titer-Glo Luminescent Cell Viability Reagent diluted 1:3 in PBS. Plates were sealed with Perkin Elmer Top-Seal, inverted several times to mix, and immediately centrifuged at 1000 rpm for 2 min. Plates were incubated in low light conditions for 8-10 min and luminescence was measured.

Ba/F3-EGFR-L858R cells = Ba/F3-EGFR-L858R cells (Homo sapiens, UniProt P00533, L858R, cells depend on it); assay: Ba/F3 cell survival assay, EGFR L858R; details: without IL-3, without EGF, 48 h; read-out: BA/F3 (EGFR L858R) IC50
Protocol: as §1, §2, §3, §4, §5

[2] = molecular target: Ba/F3-EGFR-D770_N771 insSVD C797S cells (Homo sapiens, UniProt P00533, DUP768-770/C797S, cells depend on it); assay: Ba/F3 cell survival assay, EGFR D770_N771insSVD C797S; details: without IL-3, without EGF, 48 h; read-out: BA/F3 (EGFR 0770_N771 insSVD C797S) IC50
Protocol: as §1, §2, §3, §4, §5

[3] = molecular target: Ba/F3-ERBB2-A775_G776insYVMA cells (Homo sapiens, UniProt P04626, DUP772-775, cells depend on it); assay: Ba/F3 cell survival assay, ERBB2 A775_G776insYVMA; details: without IL-3, without EGF, 48 h; read-out: BA/F3 (ERBB2 A775_G776 insYVMA) IC50
Protocol: as §1, §2, §3, §4, §5

PC9 cells (EGFRex19del) = assay: PC9 proliferation assay (Cell Titer Glo); details: Homo sapiens, PC-9, 72 h
Protocol: Cellular Data Description (PC9 Cells, EGFRex19del)
PC9 cells were purchased from ATCC. 400 PC9 cells per well were seeded in growth medium (DMEM, 10% FCS) in a 384-well plate (CORNING #3571). Seed reference plate for time zero determination on the same day. All plates were incubated overnight at 37° C. After 24 hours, test compound were added in 7-step dilution using HP Compound printer and incubated at 37° C. for 72 h. After 3 days, 30 μL/well CTG solution (Promega Cell Titer Glo solution; catalog # G755B and G756B) were added to each well, incubated for 30 minutes and the plate were read on PheraStar. Proliferation is calculated after subtracting time zero luminescence values from day 4 values and comparing to untreated wells. The IC50 values were determined using the four parameter fit.

Chain of Ba/F3-EGFR-D770_N771 insSVD C797S cells (P00533 with tags, fused parts or gaps DUP768-770/C797S): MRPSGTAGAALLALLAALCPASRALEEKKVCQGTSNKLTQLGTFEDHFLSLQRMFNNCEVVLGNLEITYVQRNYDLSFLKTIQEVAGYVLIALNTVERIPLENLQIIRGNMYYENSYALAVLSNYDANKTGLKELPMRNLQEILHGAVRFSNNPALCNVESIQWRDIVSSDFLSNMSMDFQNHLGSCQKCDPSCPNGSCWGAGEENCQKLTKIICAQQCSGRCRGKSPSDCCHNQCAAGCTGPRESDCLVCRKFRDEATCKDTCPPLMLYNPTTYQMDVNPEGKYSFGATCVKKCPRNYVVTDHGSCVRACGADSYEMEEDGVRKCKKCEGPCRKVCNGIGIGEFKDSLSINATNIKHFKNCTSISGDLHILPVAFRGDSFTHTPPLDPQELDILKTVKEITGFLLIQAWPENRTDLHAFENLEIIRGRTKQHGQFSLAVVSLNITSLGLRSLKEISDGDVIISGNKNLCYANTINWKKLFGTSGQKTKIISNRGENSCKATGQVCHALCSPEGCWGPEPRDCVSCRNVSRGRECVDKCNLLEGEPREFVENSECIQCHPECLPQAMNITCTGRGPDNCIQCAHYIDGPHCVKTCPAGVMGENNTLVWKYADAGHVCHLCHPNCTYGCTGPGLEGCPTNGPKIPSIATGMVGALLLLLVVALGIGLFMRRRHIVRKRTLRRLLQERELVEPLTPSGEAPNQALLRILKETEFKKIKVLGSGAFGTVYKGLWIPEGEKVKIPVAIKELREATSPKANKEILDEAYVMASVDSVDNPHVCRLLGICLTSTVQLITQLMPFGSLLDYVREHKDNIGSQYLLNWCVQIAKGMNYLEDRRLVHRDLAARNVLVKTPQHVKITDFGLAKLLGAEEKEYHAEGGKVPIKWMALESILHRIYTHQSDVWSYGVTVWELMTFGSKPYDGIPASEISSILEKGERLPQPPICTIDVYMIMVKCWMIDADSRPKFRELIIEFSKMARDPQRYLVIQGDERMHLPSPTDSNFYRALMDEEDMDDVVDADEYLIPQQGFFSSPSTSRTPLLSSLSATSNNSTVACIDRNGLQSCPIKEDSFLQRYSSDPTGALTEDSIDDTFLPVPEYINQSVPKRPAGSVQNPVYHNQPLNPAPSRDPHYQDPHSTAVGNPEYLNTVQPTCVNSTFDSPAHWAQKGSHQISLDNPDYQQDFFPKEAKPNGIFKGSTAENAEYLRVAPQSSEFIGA
Chain of Ba/F3-ERBB2-A775_G776insYVMA cells (P04626 with tags, fused parts or gaps DUP772-775): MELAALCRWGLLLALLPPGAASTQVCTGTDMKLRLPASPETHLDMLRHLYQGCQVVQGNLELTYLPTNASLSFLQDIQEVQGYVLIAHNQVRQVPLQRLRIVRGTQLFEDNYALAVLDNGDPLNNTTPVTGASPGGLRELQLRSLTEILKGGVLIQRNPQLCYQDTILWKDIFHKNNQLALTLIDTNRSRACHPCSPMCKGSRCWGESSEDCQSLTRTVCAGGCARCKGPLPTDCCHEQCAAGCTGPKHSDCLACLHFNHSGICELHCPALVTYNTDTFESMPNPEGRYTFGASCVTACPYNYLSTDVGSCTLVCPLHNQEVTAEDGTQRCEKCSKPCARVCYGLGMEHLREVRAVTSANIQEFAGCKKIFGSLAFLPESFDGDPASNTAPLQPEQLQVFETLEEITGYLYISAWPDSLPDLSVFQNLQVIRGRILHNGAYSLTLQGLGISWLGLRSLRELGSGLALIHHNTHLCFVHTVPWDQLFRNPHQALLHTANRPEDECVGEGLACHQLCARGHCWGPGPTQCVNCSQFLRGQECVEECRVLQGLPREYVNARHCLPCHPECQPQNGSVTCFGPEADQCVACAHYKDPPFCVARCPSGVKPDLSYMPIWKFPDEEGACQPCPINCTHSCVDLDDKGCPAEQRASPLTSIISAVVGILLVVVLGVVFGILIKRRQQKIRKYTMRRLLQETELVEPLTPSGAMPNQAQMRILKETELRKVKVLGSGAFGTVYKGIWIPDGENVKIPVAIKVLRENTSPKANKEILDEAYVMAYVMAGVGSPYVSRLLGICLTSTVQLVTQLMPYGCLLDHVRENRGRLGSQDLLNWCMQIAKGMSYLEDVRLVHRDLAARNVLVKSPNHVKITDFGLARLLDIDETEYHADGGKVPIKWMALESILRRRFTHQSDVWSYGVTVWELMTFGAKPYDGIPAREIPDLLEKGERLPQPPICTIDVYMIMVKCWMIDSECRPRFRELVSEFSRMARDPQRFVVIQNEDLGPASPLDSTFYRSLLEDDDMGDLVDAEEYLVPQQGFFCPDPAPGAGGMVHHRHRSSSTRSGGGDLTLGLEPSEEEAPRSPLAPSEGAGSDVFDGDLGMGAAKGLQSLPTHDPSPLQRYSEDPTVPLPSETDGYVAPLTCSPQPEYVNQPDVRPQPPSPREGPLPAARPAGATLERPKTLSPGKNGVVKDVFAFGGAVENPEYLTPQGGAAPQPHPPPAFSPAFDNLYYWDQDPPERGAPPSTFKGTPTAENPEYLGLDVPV
Chain of Ba/F3-EGFR-E746_A750del cells (P00533 with tags, fused parts or gaps DEL746-750): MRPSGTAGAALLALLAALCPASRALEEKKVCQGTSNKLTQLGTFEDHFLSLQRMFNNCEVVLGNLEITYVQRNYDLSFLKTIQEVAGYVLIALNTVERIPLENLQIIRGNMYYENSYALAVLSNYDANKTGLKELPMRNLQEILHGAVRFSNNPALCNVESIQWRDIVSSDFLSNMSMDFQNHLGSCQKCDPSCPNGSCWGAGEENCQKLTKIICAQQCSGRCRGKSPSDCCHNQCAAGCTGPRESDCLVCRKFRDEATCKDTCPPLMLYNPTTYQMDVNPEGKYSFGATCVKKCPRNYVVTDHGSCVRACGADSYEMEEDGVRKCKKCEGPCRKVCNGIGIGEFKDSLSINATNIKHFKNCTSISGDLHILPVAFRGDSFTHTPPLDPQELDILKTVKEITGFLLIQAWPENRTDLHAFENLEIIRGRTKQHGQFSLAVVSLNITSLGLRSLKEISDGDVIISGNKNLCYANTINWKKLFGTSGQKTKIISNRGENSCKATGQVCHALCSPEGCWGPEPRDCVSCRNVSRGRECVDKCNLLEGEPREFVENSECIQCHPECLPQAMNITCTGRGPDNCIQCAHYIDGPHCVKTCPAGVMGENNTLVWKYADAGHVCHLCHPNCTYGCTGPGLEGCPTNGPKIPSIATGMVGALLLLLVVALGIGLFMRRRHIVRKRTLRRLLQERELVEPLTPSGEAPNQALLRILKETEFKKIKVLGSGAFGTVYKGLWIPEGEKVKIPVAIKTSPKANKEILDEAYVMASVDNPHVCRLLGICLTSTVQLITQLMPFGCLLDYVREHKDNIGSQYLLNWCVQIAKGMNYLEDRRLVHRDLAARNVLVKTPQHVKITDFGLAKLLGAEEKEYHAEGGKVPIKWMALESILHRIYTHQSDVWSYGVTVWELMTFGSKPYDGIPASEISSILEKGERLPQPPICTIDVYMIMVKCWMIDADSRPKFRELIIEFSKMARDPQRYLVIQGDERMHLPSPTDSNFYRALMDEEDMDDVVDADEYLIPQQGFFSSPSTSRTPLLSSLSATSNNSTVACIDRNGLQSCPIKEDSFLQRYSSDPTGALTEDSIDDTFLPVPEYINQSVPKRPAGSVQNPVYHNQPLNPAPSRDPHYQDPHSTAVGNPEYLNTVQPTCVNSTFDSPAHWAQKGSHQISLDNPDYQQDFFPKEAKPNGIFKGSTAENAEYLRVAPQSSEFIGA
Chain of Ba/F3-EGFR-insSVD cells (P00533 with tags, fused parts or gaps DUP768-770): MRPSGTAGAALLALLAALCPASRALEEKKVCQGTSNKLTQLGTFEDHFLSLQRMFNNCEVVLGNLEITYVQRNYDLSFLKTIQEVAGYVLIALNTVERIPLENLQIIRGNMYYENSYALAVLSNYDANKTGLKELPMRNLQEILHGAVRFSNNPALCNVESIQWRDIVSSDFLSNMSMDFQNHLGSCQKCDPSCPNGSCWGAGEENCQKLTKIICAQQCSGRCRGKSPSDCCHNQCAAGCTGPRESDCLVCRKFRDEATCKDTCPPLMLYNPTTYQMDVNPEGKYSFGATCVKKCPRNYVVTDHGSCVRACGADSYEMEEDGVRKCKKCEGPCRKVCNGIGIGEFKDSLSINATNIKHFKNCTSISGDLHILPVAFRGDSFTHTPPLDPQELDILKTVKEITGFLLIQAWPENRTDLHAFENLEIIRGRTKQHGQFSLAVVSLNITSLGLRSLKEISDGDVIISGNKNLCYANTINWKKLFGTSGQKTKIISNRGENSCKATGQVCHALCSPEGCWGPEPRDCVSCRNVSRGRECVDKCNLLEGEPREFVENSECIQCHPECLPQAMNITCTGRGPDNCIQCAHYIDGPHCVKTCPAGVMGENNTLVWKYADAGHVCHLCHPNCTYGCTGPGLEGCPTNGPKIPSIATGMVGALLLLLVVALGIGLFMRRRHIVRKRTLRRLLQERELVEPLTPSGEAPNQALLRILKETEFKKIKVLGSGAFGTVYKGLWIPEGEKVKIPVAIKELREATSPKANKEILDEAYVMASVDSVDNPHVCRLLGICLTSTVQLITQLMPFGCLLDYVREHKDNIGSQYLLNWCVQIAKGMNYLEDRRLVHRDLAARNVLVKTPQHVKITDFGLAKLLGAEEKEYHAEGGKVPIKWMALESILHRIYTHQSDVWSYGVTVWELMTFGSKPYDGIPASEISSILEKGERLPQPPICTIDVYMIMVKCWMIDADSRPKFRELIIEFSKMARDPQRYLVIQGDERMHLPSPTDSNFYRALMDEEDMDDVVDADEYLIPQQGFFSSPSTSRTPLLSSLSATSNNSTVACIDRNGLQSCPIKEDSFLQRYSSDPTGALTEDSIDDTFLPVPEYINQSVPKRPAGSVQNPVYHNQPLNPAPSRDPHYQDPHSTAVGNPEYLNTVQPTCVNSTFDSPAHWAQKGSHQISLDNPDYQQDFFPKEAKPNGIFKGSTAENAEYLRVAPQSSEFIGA

Compound	IC50 (PC9 cells (EGFRex19del)) [nM]	GI50 (Ba/F3-EGFR-insSVD cells) [nM]	GI50 [1] [nM]	GI50 (Ba/F3-EGFR-L858R cells) [nM]	GI50 [2] [nM]	GI50 [3] [nM]
O=C1NCCc2[nH]c(-c3ccncc3OCC3COCCO3)c(Nc3cccc(Cl)c3Cl)c21 (single isomer, unassigned) [Example 8, 3-(2,3-dichloroanilino)-2-{3-[(1,4-dioxan-2-yl)methoxy]pyridin-4-yl}-1,5,6,7-tetrahydro-4H-pyrrolo[3,2-c]pyridin-4-one]	0.738	8.18	< 0.158	0.701	14.6	13.1
Cc1c(Cl)cccc1Nc1c(-c2ccncc2OC[C@@H]2CN(C)CCO2)[nH]c2c1C(=O)NCC2 [Example 42, 3-(3-chloro-2-methylanilino)-2-(3-{[(2S)-4-methylmorpholin-2-yl]methoxy}pyridin-4-yl)-1,5,6,7-tetrahydro-4H-pyrrolo[3,2-c]pyridin-4-one]	4.03	19.8	0.486	1.51	19.3	13.2
COc1c(Cl)cccc1Nc1c(-c2ccncc2OCC2COC(C)(C)CO2)[nH]c2c1C(=O)NCC2 (single isomer, unassigned) [Example 32, 3-(3-chloro-2-methoxyanilino)-2-{3-[(5,5-dimethyl-1,4-dioxan-2-yl)methoxy]pyridin-4-yl}-1,5,6,7-tetrahydro-4H-pyrrolo[3,2-c]pyridin-4-one]	1.7		2.89	1.06	15.8	16.7
COc1c(F)cccc1Nc1c(-c2ccncc2OCC2CN(C)CCO2)[nH]c2c1C(=O)NCC2 (single isomer, unassigned) [Example 14, 3-(3-fluoro-2-methoxyanilino)-2-{3-[(4-methylmorpholin-2-yl)methoxy]pyridin-4-yl}-1,5,6,7-tetrahydro-4H-pyrrolo[3,2-c]pyridin-4-one]	2.12	10.5	1.72	1.22	24.9	13.6
Cc1c(F)cccc1Nc1c(-c2ccncc2OCC2COCCO2)[nH]c2c1C(=O)NCC2 (single isomer, unassigned) [Example 48, 2-[3-(1,4-dioxan-2-ylmethoxy)-4-pyridyl]-3-(3-fluoro-2-methyl-anilino)-1,5,6,7-tetrahydropyrrolo[3,2-c]pyridin-4-one]	3.4	18.8	1.43	2.36		39.8
COc1c(Cl)cccc1Nc1c(-c2ccncc2OC[C@@H]2COCCO2)[nH]c2c1C(=O)NCC2 (single isomer, unassigned) [Example 2]	0.673	7.12	< 0.158	0.525	8.22	8.31
COc1c(Cl)cccc1Nc1c(-c2ccncc2OC[C@@H]2COCCN2C)[nH]c2c1C(=O)NCC2 [Example 21, 3-(3-chloro-2-methoxyanilino)-2-(3-{[(3S)-4-methylmorpholin-3-yl]methoxy}pyridin-4-yl)-1,5,6,7-tetrahydro-4H-pyrrolo[3,2-c]pyridin-4-one]	1.16	3.49	0.203	0.644	7.84	13.4
COc1c(F)cccc1Nc1c(-c2ccncc2OCC2COCCO2)[nH]c2c1C(=O)NCC2 (single isomer, unassigned) [Example 5, 2-{3-[(1,4-dioxan-2-yl)methoxy]pyridin-4-yl}-3-(3-fluoro-2-methoxyanilino)-1,5,6,7-tetrahydro-4H-pyrrolo[3,2-c]pyridin-4-one]		9.73	0.739	2.03	37	

Continued, in another order:

IC50 (PC9 cells (EGFRex19del)) [nM]	Compound	GI50 (Ba/F3-EGFR-insSVD cells) [nM]	GI50 [1] [nM]	GI50 (Ba/F3-EGFR-L858R cells) [nM]	GI50 [2] [nM]	GI50 [3] [nM]
2.68	COc1c(F)cccc1Nc1c(-c2ccncc2OC[C@@H]2COCCN2C)[nH]c2c1C(=O)NCC2 [Example 20, 3-(3-fluoro-2-methoxyanilino)-2-(3-{[(3S)-4-methylmorpholin-3-yl]methoxy}pyridin-4-yl)-1,5,6,7-tetrahydro-4H-pyrrolo[3,2-c]pyridin-4-one]	8.25			12.2	23.5
6.82	Cc1c(Cl)cccc1Nc1c(-c2ccncc2OC[C@H]2COCCO2)[nH]c2c1C(=O)NCC2 (single isomer, unassigned) [Example 50]	8.82	1.1	1.07	26.7	10.3
2.89	Cc1c(Cl)cccc1Nc1c(-c2ccncc2OCC2COC(C)(C)CO2)[nH]c2c1C(=O)NCC2 (single isomer, unassigned) [Example 46, 3-(3-chloro-2-methyl-anilino)-2-[3-[(5,5-dimethyl-1,4-dioxan-2-yl)methoxy]-4-pyridyl]-1,5,6,7-tetrahydropyrrolo[3,2-c]pyridin-4-one]	10.1	1.05	0.957		11
1.74	CCc1c(Cl)cccc1Nc1c(-c2ccncc2OC[C@@H]2CN(C)CCO2)[nH]c2c1C(=O)NCC2 [Example 56, 3-(3-chloro-2-ethylanilino)-2-(3-{[(2S)-4-methylmorpholin-2-yl]methoxy}pyridin-4-yl)-1,5,6,7-tetrahydro-4H-pyrrolo[3,2-c]pyridin-4-one]	11.9	0.892	1.34	14	13.5
